Reference: the NIST ThermoML archive (doi:10.1021/je030156p)
Numbers after ± are expanded uncertainties.

Details: Liquid, Ebulliometric method (Recirculating still)

Row | Structure (SMILES) | vapor or sublimation pressure (268.15 K) [kPa] | vapor or sublimation pressure (273.15 K) [kPa] | vapor or sublimation pressure (283.15 K) [kPa] | vapor or sublimation pressure (293.15 K) [kPa] | vapor or sublimation pressure (303.15 K) [kPa] | vapor or sublimation pressure (313.15 K) [kPa]
1 | FC(F)C(F)(F)F [pentafluoroethane] | 573.7 ± 2 | 671.4 ± 2.1 | 907.6 ± 2.1 | 1202.8 ± 2.1 | 1566 ± 2.2 | 2004.9 ± 2.2
2 | CCC [propane] | 407.9 ± 2 | 476.9 ± 2 | 637.2 ± 2.1 | 839.2 ± 2.1 | 1074.6 ± 2.1 | 1364.3 ± 2.2
